SMILES strings stand for the structures.

The assay in a line: Inhibition of Saccharomyces cerevisiae alpha-glucosidase using p-nitrophenyl-alpha-D-glucopyranoside as substrate preincubated for 15 mins followed by substrate addition measured after 30 mins by spectrophotometric method.
Molecule `COc1ccc(NC(=O)CSc2nnc(-c3ccccc3)c(-c3ccccc3)n2)cc1` yielded an IC50 of 49.4 µM. Under `Cc1ccc(NC(=O)CSc2nnc(-c3ccccc3)c(-c3ccccc3)n2)c(C)c1` stands 67.2 µM; under `O=C(CSc1nnc(-c2ccccc2)c(-c2ccccc2)n1)Nc1ccc(C(F)(F)F)cc1`, 34.9 µM. `COc1ccc(NC(=O)CSc2nnc(-c3ccccc3)c(-c3ccccc3)n2)c([N+](=O)[O-])c1` gave an IC50 of 47 µM. Under `O=C(CSc1nnc(-c2ccccc2)c(-c2ccccc2)n1)Nc1ccc(Cl)cc1` stands 14.1 µM; under `Cc1ccc(NC(=O)CSc2nnc(-c3ccccc3)c(-c3ccccc3)n2)cc1`, 52 µM; under `CCOc1ccccc1NC(=O)CSc1nnc(-c2ccccc2)c(-c2ccccc2)n1`, 16 µM. Molecule `O=C(CSc1nnc(-c2ccccc2)c(-c2ccccc2)n1)Nc1ccc(Cl)cc1Cl` registered an IC50 of 36.8 µM. The molecule `Cc1ccccc1NC(=O)CSc1nnc(-c2ccccc2)c(-c2ccccc2)n1` had a 50% inhibitory concentration (IC50) of 72.7 µM. Molecule `O=C(CSc1nnc(-c2ccccc2)c(-c2ccccc2)n1)Nc1ccc(Oc2ccccc2)cc1` yielded an IC50 of 25.2 µM.

`Cc1ccc(NC(=O)CSc2nnc(-c3ccccc3)c(-c3ccccc3)n2)c([N+](=O)[O-])c1` displayed an IC50 of 45.6 µM. Under `O=C(CSc1nnc(-c2ccccc2)c(-c2ccccc2)n1)Nc1ccc([N+](=O)[O-])cc1` stands 12.5 µM; under `O=C(CSc1nnc(-c2ccccc2)c(-c2ccccc2)n1)Nc1ccccc1`, 71.1 µM; under `O=C(CSc1nnc(-c2ccccc2)c(-c2ccccc2)n1)Nc1ccc(F)cc1`, 50.6 µM. The molecule `O=C(CSc1nnc(-c2ccccc2)c(-c2ccccc2)n1)Nc1cc(Cl)ccc1Cl` yielded an IC50 of 28 µM. Turning to `Cc1cccc(NC(=O)CSc2nnc(-c3ccccc3)c(-c3ccccc3)n2)c1`, the concentration for half-maximal inhibition (IC50) came out at 42.5 µM. `CCOc1ccc(NC(=O)CSc2nnc(-c3ccccc3)c(-c3ccccc3)n2)cc1` gave a concentration for half-maximal inhibition (IC50) of 26.3 µM.

Usually IC50 stands for the concentration that inhibits the measured activity by half. The low end stands for higher potency, the high end for lower potency.

These data come from ChEMBL document CHEMBL3994658, “Synthesis, molecular docking and α-glucosidase inhibition of 2-((5,6-diphenyl-1,2,4-triazin-3-yl)thio)-N-arylacetamides” (Bioorg Med Chem Lett, 2017).
